{
  "source": "patent US20260151358A1",
  "about": "“METHODS OF TREATING, AMELIORATING, AND/OR PREVENTING STRESS-RELATED DISORDER” (Yale University, priority 2022, published 2026)",
  "key": {"dlPFC function": {"tested_on": "dlPFC function", "details": "published data, Li et al. 1994; cited from earlier work"}, "dlPFC Delay cells": {"tested_on": "dlPFC Delay cells", "test": "Single unit recording with iontophoresis of dlPFC Delay cells in monkeys performing the ODR working memory task", "format": "in vivo, rhesus macaques", "details": "for PFC neuronal firing (Delay cell firing): FIGS. 9A-9B, monkeys performing a working memory task; for delay-related firing for nonpreferred directions / delay-related firing of dlPFC Delay cells for the neurons' preferred direction / d′ measure of spatial tuning: iontophoresis, vs control, ODR task; for effect on the S-Bay (LTCC agonist)-induced reduction of Delay cell firing: pretreatment", "source_text": "The physiological contributions of LTCC and β1-AR signaling were examined at the cellular level in rhesus macaques performing the oculomotor delayed response (ODR) spatial working memory task (FIG. 4A) to determine how they influence the neuronal firing needed for working memory and higher cognition. Recordings were made from the caudal principal sulcus (FIG. 4B) using an iontophoretic electrode (FIG. 4C) that allows minute ejection of charged compounds onto the neuron being recorded. The dlPFC contains “Delay cells” that are able to fire across the length of the delay period while the subject is remembering a location (FIG. 4D); this persistent firing is spatially tuned for the neuron's preferred direction, thus representing visual space in working memory. The effects of β1-AR-Cav1.2 signaling on dlPFC “Delay cell” firing were tested using single unit recordings coupled with iontophoresis in adult and aged rhesus monkeys performing the ODR task using repeated measures analyses. Aged monkeys have naturally-occurring calcium dysregulation, and thus are particularly useful for examining agents that reduce calcium signaling. As there are no compounds selective for Cav1.2, these experiments used agents targeting all LTCCs (i.e. Cav1.2 and Cav1.3 in dlPFC)."}, "rhesus monkeys": {"tested_on": "rhesus monkeys", "test": "Stress-induced (FG7142) working memory deficits, spatial delayed response task, systemic administration", "format": "in vivo", "details": "for stress-induced working memory (cognitive) deficits: pretreatment, FG7142-treated animals, delayed response task; for effect of the selected dose alone on working memory performance: without stressor; for stress-induced cognitive deficits: monkeys", "source_text": "The final experiments examined whether systemic administration of compounds that block β1-AR or LTCCs prevent stress-induced working memory deficits in rhesus monkeys (n=6), as predicted by the physiological data. This experiment used the LTCC blocker, nimodipine, which normalizes dlPFC working memory in human subjects carrying the CACNA1C allele that increases channel expression. The current experiments tested the effects of β1-AR or LTCC blockade on stress-induced working memory deficits in adult monkeys performing the spatial delayed response task in a Wisconsin General Test Apparatus. The anxiogenic inverse benzodiazepine agonist, FG7142, was used as a pharmacological stressor, as it produces a classic stress response including cortisol release in humans and monkeys, yet allows precise dosing to produce a mild response that impairs accuracy without impeding motivation for testing for food rewards. […]; post-hoc comparisons: vehicle+vehicle vs. vehicle+stress, p=0.001; […]; post-hoc comparisons: vehicle+vehicle vs. vehicle+stress, p=0.0009; vehicle+stress vs. nimodipine+stress, p=0.0006)."}, "test animals": {"tested_on": "test animals", "test": "Working memory (cognition) after β1-AR or β2-AR blockade (FIG. 11)", "format": "in vivo"}, "[1]": {"molecular_target": "β3-adrenergic receptor subtype (β3-AR) (Homo sapiens, UniProt P13945)", "sequence (P13945 whole entry)": "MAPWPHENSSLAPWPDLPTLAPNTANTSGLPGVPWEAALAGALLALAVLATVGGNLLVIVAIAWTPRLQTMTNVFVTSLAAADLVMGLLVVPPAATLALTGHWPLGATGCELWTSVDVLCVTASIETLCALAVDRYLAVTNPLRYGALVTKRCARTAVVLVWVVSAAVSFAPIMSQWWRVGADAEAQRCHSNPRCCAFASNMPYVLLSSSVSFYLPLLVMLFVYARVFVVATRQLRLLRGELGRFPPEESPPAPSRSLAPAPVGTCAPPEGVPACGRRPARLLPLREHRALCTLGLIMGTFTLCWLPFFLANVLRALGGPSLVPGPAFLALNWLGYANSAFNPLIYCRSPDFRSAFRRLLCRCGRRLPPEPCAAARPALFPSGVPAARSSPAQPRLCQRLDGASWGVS", "details": "cited from earlier work"}},
  "note": "“Also recorded” adds a separate entry of the source.",
  "data": [
    {"compound": "CC(C)NCC(O)COc1cccc2ccccc12", "note": "(racemic) [propranolol, (RS)-1-(1-methylethylamino)-3-(1-naphthyloxy)propan-2-ol]", "values": [
      {"measurement": "effect on dlPFC function", "setting": "dlPFC function", "value": "little effect"}
    ]},
    {"compound": "O=C(NCCNCC(O)COc1ccc(O)cc1)N1CCOCC1", "note": "(racemic) [xamoterol, (RS)—N-(2-{[2-hydroxy-3-(4-hydroxyphenoxy)propyl]amino}ethyl)morpholine-4-carboxamide]", "values": [
      {"measurement": "PFC neuronal firing (Delay cell firing)", "setting": "dlPFC Delay cells", "value": "reduces PFC neuronal firing"},
      {"measurement": "delay-related firing for nonpreferred directions", "setting": "dlPFC Delay cells", "value": "not for nonpreferred directions"},
      {"measurement": "delay-related firing of dlPFC Delay cells for the neurons' preferred direction", "setting": "dlPFC Delay cells", "value": "reduced delay-related firing"},
      {"measurement": "d′ measure of spatial tuning", "setting": "dlPFC Delay cells", "value": "significant reduction"}
    ]},
    {"compound": "CC[C@H](NC(C)C)[C@H](O)c1ccc(O)c2[nH]c(=O)ccc12", "note": "(relative stereo) [procaterol, (±)-(1R,2S)-rel-8-hydroxy-5-[1-hydroxy-2-(isopropylamino)butyl]-quinolin-2 (1H)-one]", "values": [
      {"measurement": "PFC neuronal firing (Delay cell firing)", "setting": "dlPFC Delay cells", "value": "increases delay cell firing"}
    ]},
    {"compound": "COC(=O)C1=C(C)NC(C)=C([N+](=O)[O-])[C@H]1c1ccccc1C(F)(F)F", "note": "[(S)-(−)-Bay-K 8644, (−)-methyl 2,6-dimethyl-5-nitro-4 (S)-[2-(trifluoromethyl)phenyl]-1,4-dihydropyridine-3-carboxylate]", "values": [
      {"measurement": "delay-related firing of dlPFC Delay cells for the neurons' preferred direction", "setting": "dlPFC Delay cells", "value": "reduced delay-related firing"},
      {"measurement": "d′ measure of spatial tuning", "setting": "dlPFC Delay cells", "value": "decreased"}
    ]},
    {"compound": "CNC(=O)c1cc2c(cn1)[nH]c1ccccc12", "note": "[FG7142]", "values": [
      {"measurement": "working memory performance compared to vehicle+vehicle control", "setting": "rhesus monkeys; vehicle pretreatment + pharmacological stressor, n=6", "value": "significantly impaired performance"}
    ]},
    {"compound": "Cc1ccc(OCC(O)C(C)NC(C)C)c2c1CCC2", "note": "(centres unmarked) [IC1118551, 3-(isopropylamino)-1-[(7-methyl-4-indanyl)oxy]butan-2-ol]", "values": [
      {"measurement": "cognition (working memory)", "setting": "test animals; 0.1 mg/kg, FIG. 11, n=1", "value": "impaired cognition"}
    ]},
    {"compound": "c1ccc2c(c1)CCC[C@H]2Nc1nc2ccccc2[nH]1", "note": "[NS8593, N-[(1R)-1,2,3,4-tetrahydro-1-naphthalenyl]-1H-benzimidazol-2-amine]", "values": [
      {"measurement": "delay-related firing for nonpreferred directions", "setting": "dlPFC Delay cells", "value": "smaller increase"},
      {"measurement": "delay-related firing of dlPFC Delay cells for the neurons' preferred direction", "setting": "dlPFC Delay cells", "value": "significantly increased delay firing"},
      {"measurement": "d′ measure of spatial tuning", "setting": "dlPFC Delay cells", "value": "significant increase"},
      {"measurement": "effect on the S-Bay (LTCC agonist)-induced reduction of Delay cell firing", "setting": "dlPFC Delay cells", "value": "blocked"}
    ]},
    {"compound": "CCN(c1ccccc1)c1cc(NC)[n+](C)c(C)n1", "note": "[ZD7288, N-ethyl-1,6-dihydro-1,2-dimethyl-6-(methylimino)-N-phenyl-4-pyrimidinamine]", "values": [
      {"measurement": "effect on the S-Bay (LTCC agonist)-induced reduction of Delay cell firing", "setting": "dlPFC Delay cells", "value": "blocked"}
    ]},
    {"compound": "CC(C)NCC(O)COc1ccc(CCOCC2CC2)cc1", "note": "(centres unmarked) [betaxolol, 1-{4-[2-(cyclopropylmethoxy)ethyl]phenoxy}-3-(propan-2-ylamino)propan-2-ol]", "values": [
      {"measurement": "delay-related firing of dlPFC Delay cells for the neurons' preferred direction", "setting": "dlPFC Delay cells", "value": "enhanced delay-related firing"},
      {"measurement": "d′ measure of spatial tuning", "setting": "dlPFC Delay cells", "value": "increased"},
      {"measurement": "pKD value for β3-AR", "setting": "[1]", "value": "5.97±0.08"},
      {"measurement": "stress-induced working memory (cognitive) deficits", "setting": "rhesus monkeys", "value": "prevented working memory deficits; also recorded: blocked stress-induced cognitive deficits"},
      {"measurement": "effect of the selected dose alone on working memory performance", "setting": "rhesus monkeys", "value": "no effect on their own"}
    ]},
    {"compound": "OC(CNCC(O)C1CCc2cc(F)ccc2O1)C1CCc2cc(F)ccc2O1", "note": "(centres unmarked) [nebivolol, 1-(6-fluoro-3,4-dihydro-2H-chromen-2-yl)-2-[[2-(6-fluoro-3,4-dihydro-2H-chromen-2-yl)-2-hydroxyethyl]amino]ethanol]", "values": [
      {"measurement": "cognition (working memory)", "setting": "test animals; 1.0 mg/kg, FIG. 11", "value": "improved cognition"},
      {"measurement": "stress-induced cognitive deficits", "setting": "rhesus monkeys; 0.01 mg/kg, FIG. 10B", "value": "blocked stress-induced cognitive deficits"},
      {"measurement": "stress-induced cognitive deficits", "setting": "rhesus monkeys; 0.1 mg/kg, FIG. 10A", "value": "blocked stress-induced cognitive deficits"},
      {"measurement": "stress-induced working memory (cognitive) deficits", "setting": "rhesus monkeys", "value": "prevented stress-induced cognitive deficits"}
    ]},
    {"compound": "COCCOC(=O)C1=C(C)NC(C)=C(C(=O)OC(C)C)C1c1cccc([N+](=O)[O-])c1", "note": "(centres unmarked) [nimodipine, 3-(2-methoxyethyl) 5-propan-2-yl 2,6-dimethyl-4-(3-nitrophenyl)-1,4-dihydropyridine-3,5-dicarboxylate]", "values": [
      {"measurement": "stress-induced working memory (cognitive) deficits", "setting": "rhesus monkeys", "value": "prevented working memory deficits"},
      {"measurement": "effect of the selected dose alone on working memory performance", "setting": "rhesus monkeys", "value": "no effect on their own"}
    ]}
  ]
}
